# Data as given in ChEMBL document CHEMBL3885861, “Open TG-GATES”.
# Organism: Rattus norvegicus
# Test: Open TG-GATES - Regimen: Single
# Type: toxicity, organism-based, Sprague-Dawley
# Design: regimen Single, gender Male, age 6 weeks
# Details: in vivo, po, 0 mg/kg, route gavage, dose level Control; for APTT / Bas / Eos / Fbg / Hb / Ht / Lym / MCH / MCHC / MCV / Mono / Neu / PT / Plat / RBC / Ret / WBC: tissue Blood; for KIDNEY_TOTAL: tissue Kidney; for LIVER: tissue Liver; for A/G / ALP / ALT / AST / BUN / CRE / Ca / Cl / DBIL / GLC / IP / K / LDH / Na / PL / RALB / TBIL / TC / TG / TP / gamma-GTP: tissue Plasma
compound,measurement,setting,value
CN(CCOc1ccc(CC2SC(=O)NC2=O)cc1)c1ccccn1.O=C(O)/C=C\C(=O)O (centres undefined) [ROSIGLITAZONE MALEATE],TERMINAL_BW,3 h,206.3 g
same,APTT,3 h,15.8 s
same,Bas,3 h,0%
same,Eos,3 h,0.6%
same,Fbg,3 h,216.8 mg/dL
same,Hb,3 h,13.1 g/dL
same,Ht,3 h,39.7%
same,Lym,3 h,75.6%
same,MCH,3 h,21.4 pg
same,MCHC,3 h,33.1%
same,MCV,3 h,64.7 fL
same,Mono,3 h,9.2%
same,Neu,3 h,14.4%
same,PT,3 h,12 s
same,Plat,3 h,123.6 x10_4/uL
same,RBC,3 h,614 x10_4/ul
same,Ret,3 h,8.6%
same,WBC,3 h,110.6 x10_2/uL
same,KIDNEY_TOTAL,3 h,0.6 g
same,LIVER,3 h,9.7 g
same,A/G,3 h,2.3
same,ALP,3 h,1326.2 IU/L
same,ALT,3 h,36.6 IU/L
same,AST,3 h,71 IU/L
same,BUN,3 h,13 mg/dL
same,CRE,3 h,0.3 mg/dL
same,Ca,3 h,11.4 mg/dL
same,Cl,3 h,104.2 meq/L
same,DBIL,3 h,0.012 mg/dL
same,GLC,3 h,195.6 mg/dL
same,IP,3 h,8.6 mg/dL
same,K,3 h,4.4 meq/L
same,LDH,3 h,82 IU/L
same,Na,3 h,139.8 meq/L
same,PL,3 h,138.2 mg/dL
same,RALB,3 h,3.7 g/dL
same,TBIL,3 h,0.046 mg/dL
same,TC,3 h,76 mg/dL
same,TG,3 h,71.4 mg/dL
same,TP,3 h,5.4 g/dL
same,gamma-GTP,3 h,0.6 IU/L
same,TERMINAL_BW,6 h,205.9 g
same,APTT,6 h,15.9 s
same,Bas,6 h,0%
same,Eos,6 h,1.2%
same,Fbg,6 h,220.2 mg/dL
same,Hb,6 h,13.2 g/dL
same,Ht,6 h,40%
same,Lym,6 h,80.2%
same,MCH,6 h,21.6 pg
same,MCHC,6 h,32.9%
same,MCV,6 h,65.7 fL
same,Mono,6 h,4.4%
same,Neu,6 h,14.6%
same,PT,6 h,12.2 s
same,Plat,6 h,117 x10_4/uL
same,RBC,6 h,609.4 x10_4/ul
same,Ret,6 h,9.7%
same,WBC,6 h,92.8 x10_2/uL
same,KIDNEY_TOTAL,6 h,0.7 g
same,LIVER,6 h,9.7 g
same,A/G,6 h,2.3
same,ALP,6 h,1368.6 IU/L
same,ALT,6 h,35.6 IU/L
same,AST,6 h,66.6 IU/L
same,BUN,6 h,10.4 mg/dL
same,CRE,6 h,0.3 mg/dL
same,Ca,6 h,11.3 mg/dL
same,Cl,6 h,104.2 meq/L
same,DBIL,6 h,0.01 mg/dL
same,GLC,6 h,183.4 mg/dL
same,IP,6 h,8.9 mg/dL
same,K,6 h,4.4 meq/L
same,LDH,6 h,79.2 IU/L
same,Na,6 h,138.6 meq/L
same,PL,6 h,143.4 mg/dL
same,RALB,6 h,3.7 g/dL
same,TBIL,6 h,0.05 mg/dL
same,TC,6 h,83.6 mg/dL
same,TG,6 h,70.4 mg/dL
same,TP,6 h,5.3 g/dL
same,gamma-GTP,6 h,1 IU/L
same,TERMINAL_BW,9 h,204 g
same,APTT,9 h,15.7 s
same,Bas,9 h,0%
same,Eos,9 h,0.6%
same,Fbg,9 h,221.4 mg/dL
same,Hb,9 h,12.8 g/dL
same,Ht,9 h,39.1%
same,Lym,9 h,73.4%
same,MCH,9 h,21.6 pg
same,MCHC,9 h,32.9%
same,MCV,9 h,65.6 fL
same,Mono,9 h,7.8%
same,Neu,9 h,18.4%
same,PT,9 h,11.9 s
same,Plat,9 h,123 x10_4/uL
same,RBC,9 h,597 x10_4/ul
same,Ret,9 h,9%
same,WBC,9 h,93.6 x10_2/uL
same,KIDNEY_TOTAL,9 h,0.7 g
same,LIVER,9 h,8.8 g
same,A/G,9 h,2.4
same,ALP,9 h,1162.4 IU/L
same,ALT,9 h,34.2 IU/L
same,AST,9 h,68.8 IU/L
same,BUN,9 h,10.8 mg/dL
same,CRE,9 h,0.3 mg/dL
same,Ca,9 h,11 mg/dL
same,Cl,9 h,104.8 meq/L
same,DBIL,9 h,0.01 mg/dL
same,GLC,9 h,184 mg/dL
same,IP,9 h,10 mg/dL
same,K,9 h,4.5 meq/L
same,LDH,9 h,85 IU/L
same,Na,9 h,139.8 meq/L
same,PL,9 h,137.4 mg/dL
same,RALB,9 h,3.8 g/dL
same,TBIL,9 h,0.046 mg/dL
same,TC,9 h,87.6 mg/dL
same,TG,9 h,45.2 mg/dL
same,TP,9 h,5.4 g/dL
same,gamma-GTP,9 h,1 IU/L
same,TERMINAL_BW,24 h,219.8 g
same,APTT,24 h,16.5 s
same,Bas,24 h,0%
same,Eos,24 h,1%
same,Fbg,24 h,225 mg/dL
same,Hb,24 h,12.8 g/dL
same,Ht,24 h,38.9%
same,Lym,24 h,79.4%
same,MCH,24 h,21.5 pg
same,MCHC,24 h,32.8%
same,MCV,24 h,65.6 fL
same,Mono,24 h,5.2%
same,Neu,24 h,14.4%
same,PT,24 h,11.7 s
same,Plat,24 h,124.2 x10_4/uL
same,RBC,24 h,593 x10_4/ul
same,Ret,24 h,8%
same,WBC,24 h,92.8 x10_2/uL
same,KIDNEY_TOTAL,24 h,0.7 g
same,LIVER,24 h,10.7 g
same,A/G,24 h,2.3
same,ALP,24 h,1499.4 IU/L
same,ALT,24 h,38.4 IU/L
same,AST,24 h,66.4 IU/L
same,BUN,24 h,15.4 mg/dL
same,CRE,24 h,0.4 mg/dL
same,Ca,24 h,11.5 mg/dL
same,Cl,24 h,104 meq/L
same,DBIL,24 h,0.016 mg/dL
same,GLC,24 h,188.4 mg/dL
same,IP,24 h,7.7 mg/dL
same,K,24 h,4.4 meq/L
same,LDH,24 h,97 IU/L
same,Na,24 h,140.4 meq/L
same,PL,24 h,164.2 mg/dL
same,RALB,24 h,3.9 g/dL
same,TBIL,24 h,0.038 mg/dL
same,TC,24 h,94.4 mg/dL
same,TG,24 h,107 mg/dL
same,TP,24 h,5.6 g/dL
same,gamma-GTP,24 h,1 IU/L
